Values after ≈ are worked out from the molar mass of the structure shown.
Assays:
Folsomia candida = conditions: chronic/long-term; duration: 28 days; reproduction
Bibionidae = conditions: chronic/long-term; duration: 28 days; development
Tagia sp. = conditions: chronic/long-term; growth
Neomysis kadiakensis = conditions: acute; duration: 96 hours; mortality
Apis mellifera = conditions: acute, mortality
Mus musculus = conditions: acute, oral, mortality
Daphnia magna = conditions: chronic/long-term; duration: 21 days; reproduction
Phasianus sp. = conditions: acute; duration: 14 days; oral; unspecified; mortality
Pleurozium sp. = conditions: acute; duration: 72 hours; growth
Rattus norvegicus = conditions: developmental; development
Aphidius rhopalosiphi = assay: LR50; higher = less toxic; conditions: acute; mortality

COP(=S)(OC)Oc1c(Cl)cc(C)cc1Cl [Tolclofos-methyl]
NOAEL (Anas platyrhynchos; reproductive, duration: 19 weeks): 77 mg/kg-day | LD50 (Anas platyrhynchos; short-term, duration: 8 days, oral, feed, mortality): > 1620 mg/kg-day | NOEC (Folsomia candida): 11 mg/kg | NOEC (Bibionidae): 0.25 mg/L | NOEC (Tagia sp.): 60 mg/kg | LC50 (Neomysis kadiakensis): 0.089 µg/mL (≈ 0.296 µM) | LD50 (Apis mellifera; duration: 48 hours, oral, unspecified): > 264 µg/piece | LD50 (Apis mellifera; duration: 72 hours, dermal): 456 µg/piece | LD50 (Mus musculus; F): 3600 mg/kg-day | LD50 (Mus musculus; M): 3500 mg/kg-day | NOEC (Daphnia magna): 0.026 mg/L | LD50 (Phasianus sp.): > 5000 mg/kg-day | NOEC (Pleurozium sp.): 0.14 mg/L | NOAEL (Rattus norvegicus): 70.6 mg/kg-day | LC50 (Oncorhynchus mykiss; acute, duration: 96 hours, mortality): 0.69 µg/mL (≈ 2.29 µM) | NOEC (Oncorhynchus mykiss; chronic/long-term, growth): 0.012 mg/L | LR50 (Aphidius rhopalosiphi): 43.7 g/ha

— EPA's ToxValDB 9.5 (doi:10.2903/j.efsa.2018.5130)
